Experimental data as given in patent US5906922A, “Delivery of nucleic acids” (Commonwealth Scientific and Industrial Research Organisation, priority 1994, dated 1999).
Read-outs that look alike come from different tables or passages of the source. Where a SMILES comes first, the peptide text is derived from it. The star is where a group is joined. NHC(CH2O-Palmitoyl)3 = CCCCCCCCCCCCCCCC(=O)OCC(COC(=O)CCCCCCCCCCCCCCC)(COC(=O)CCCCCCCCCCCCCCC)N*; X1 = CCCCCCCCCCCCCCCC(=O)OCC(CO)(CO)N*

Key:
[1] = system: Cos 1 cells; experiment: β-gal microtitre plate transfection assay, Cos 1; format: cell-based, African Green Monkey; details: for β-gal (Cos 1): Table 3, Cos 1, highest reading of 72 conditions
Outline: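 Cos 1 cells were transfected with β-galactosidase plasmids (mouse PGK or SV40 early promoter) across varied lipid/DNA ratios in microtitre format. The lipid/DNA ratio giving maximal expression was recorded. Viability was measured with alamar blue or MTS, where higher OD means greater viability.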

[2] = system: Cos 1 cells; format: cell-based, African Green Monkey
Outline: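 Relative viability of Cos 1 cells exposed to lipid/DNA agents was read as MTS optical density; higher OD means greater viability. Some points came from separate experiments.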

[3] = system: CHO cells; experiment: Transfection of pSVLCAT, CAT assay, CHO; format: cell-based, Chinese Hamster; details: for Transfection (CAT): Table 1, CHO, optimised level of agent
Method: Protocol was the same for Verafectin and Transfectam (see above) with the exception that 0.5 μg of pSVLCAT DNA was used /60 mm dish.
Lipofectamine protocol was according to manufacturer's instructions. 0.5 μg pSVLCAT/60 mm dish. CHO cells seeded 1×10^5 /60 mm dish and adhered overnight in DME/Hams medium with 10% FCS.
Transfectam 5 or 10 μl 1mg/400 μl stock solution.
Lipofectamine 5 or 10 μl 2 mg/ml (mixed formulation 3:1 with DOPE). VerafectinA3 (K3ATP3) and VerafectinG2 (K3G[Glycine]TP2) each at 5, 10 and 15 μl of 2 mM (2.8 and 2.3 mg/ml respectively) stock.
The serum free incubation period in the presence of test agents and DNA was 6 hours, then 1 ml DME/Hams+10% FCS was added. At 24 hrs the medium was changed to 2 ml of fresh DME/Hams+10% FCS until harvest at 48 hrs.
(§1) Cell lines Cos 1 or CHO were transfected with 0.5 μg of pSVLCAT or 2 μg of pPGKlacZ plasmid using a range of concentrations of each transfection compound. The optimal concentration of compound, that is the concentration giving the highest level of CAT at 48 hours or the greatest percentage of lac z (β-galactosidase) staining cells at 24 hours was used to collate data for Table 1. As all compounds were not tested in a single experiment, absolute figures indicating transfection were not used. Rather, symbols are used to indicate the transfection efficiency relative to Lipofectamine (BRL), which was included as a control in all experiments. Table 1 thus indicates the relative efficiencies of a number of compounds in mediating the transfection of at least one cell type.
All test lipopeptide reagents were originally dissolved at 10 mM in 75% DMSO, and subsequently diluted with water to make a 2 mM stock stored at 4° C. Volumes of 2 mM stock lipopeptide ranging from 2 μl to 15 μl were diluted in 500 μl of DDME. 1 μg of plasmid pSVLCAT was separately diluted in 500 μl of DDME. Solutions were combined for 10-20 min at room temperature before adding to 500 μl of DDME in 60 mm dishes of subconfluent CHO cells (2×10^5 day-1) or Cos 1 cells (5×10^5 day-1); washed free of serum with DDME.
Cells were incubated for 6 hrs under standard conditions of 37° C. and 5% CO2 for 6 hours. 1.5 ml of DME/Hams+10% FCS (CHO) or DME+10% FCS (Cos 1) was added to the cells for overnight incubation. Fresh DME/Hams+10% FCS or DME+10% FCS was used to replace the medium for a further 24 hours prior to harvest. Cell lysates were prepared and assayed for CAT activity as described above. For Cos 1 cells, culture supernatants were assayed for CAT activity.
a. Using the standard transfection procedure described above, and 1 μg plasmid pSVLCAT, these formulations were tested on CHO cells at a single concentration equivalent to 10 μl of Verafectin A2 (2 mM) per sample and compared to unformulated compound and Lipofectamine in the same cell type. CAT production was assayed 48 hours after transfection.

[4] = system: mammalian cells; experiment: Transfection efficiency, general conclusions over cell lines; format: cell-based; details: other experiments (not shown)
Method: as §1
The compounds of the generic formula described on page 3 were addressed as consisting of the described basic building blocks: "x, y, R1-R4". These components were systematically varied to assess the optimal building blocks for transfection of standard cell lines in a standard assay system. Results will be presented by the use of example experiments, and shown as the levels of reporter gene expression achieved under standard conditions by either overall levels (CAT or β-galactosidase expression) or as % cells transfected (β-galactosidase--blue cells). Representative levels of cytotoxicity will also be described. […]

[5] = system: Cos 1 cells; experiment: Transfection of pSVLCAT, CAT assay, Cos 1; format: cell-based, African Green Monkey; details: for Transfection (CAT): Table 1, Cos 1, optimised level of agent
[6] = system: Cos 1 cells; format: cell-based, African Green Monkey; remark: listed apart in the source
Source text: (§2) Relative levels of cytotoxicity caused by the different agents were compared during the experiment using the dye "Alamar Blue" (Alamar, Sacramento Calif.).
(§3) For experiment "c", a plasmid pPGKlaczNLS encoding β-galactosidase under the control of the mouse PGK promoter (kind gift from G.Hannan) or pSVGAL which utilises the SV40 early promoter (Sleigh, M. J. and Lockett, T. J. (1985). EMBO J. 4:3831-3837),was transfected. This experiment and assay were modified from Feigner et al J. Biol Chem. 269(4) 2550-2561 1994. This protocol allows the simultaneous assessment of 72 different combinations and concentrations of DNA and test agent in a microtitre tray. […] Cytotoxicity was assessed using alamar blue, and a sample graph is shown for experiment a.
The ratio of [lipid]/[DNA] at which that maximum was achieved is shown. Experiments shown were carried out in Cos 1 cells, as described above. MTS OD is a measure of relative viabilility of the cells exposed to the different agents, a higher value indicates greater cell viability. * These points were taken from a separate experiment and some slight variation between absolute numbers should be expected between experiments.
(§4) The ratio of [lipid]/[DNA] at which that maximum was achieved is shown in brackets for the two different cell types in the following order; (Cos 1) (CHO). Experiments shown were carried out in Cos 1 cells, as described above. Viability was measured with the dye alamar blue . # Denotes compounds tested in a separate experiment. * Viability in this experiment was determined with MTS. OD is a measure of relative viability of the cells exposed to the different agents, and as with alamar blue, a higher value indicates greater cell viability.

[7] = system: CHO cells; experiment: β-gal microtitre plate transfection assay, CHO; format: cell-based, Chinese Hamster; details: Table 3, CHO, highest reading of 72 conditions
Source text: as §3
Each of these compounds was tested for transfection ability and cytotoxicity on standard cell lines using standard conditions as described above.
as §4

[8] = system: CHO cells; format: cell-based, Chinese Hamster
Method: (LEGEND--FIGS. 7, 8 and 9; none; no agent used with plasmid DNA, rb/blank; reagent blank, number following description of compound indicates no. μl of 2 mM stock (diluted with water). 7b: 100% cell survival was taken from dishes which were "mock transfected" with no DNA or transfection agent. 0% viability was assayed in the absence of cells. Viability was assessed using the dye alamar blue.)
as §2, §4

[9] = system: Hela cells; experiment: β-gal plate transfection assay, Hela; format: cell-based, Human; details: 48 hours
Method: Hela cells were seeded in place of Cosl or CHO cells in DME+10% FCS at a density of 2×10^4 /well and transfected with pPGKlaczNLS as described above. At 48 hours, toxicity was determined by alamar blue and the cells processed for the β-gal assay.

[10] = system: CHO cells; experiment: Proportion of cells transfected (β-gal staining), CHO; format: cell-based, Chinese Hamster
Method: as §1
These conjugates were used to transfect CHO and Cos 1 cells with pPGKlacZNLS for estimation of the proportion of cells transfected. The transfection conditions used were as described above for the CAT experiments with cells being grown in 35 mm dishes for transfection. Cells were seeded the day prior to transfection at a density of 3.4×10^5 /dish (Cos 1) or 6.8×10^4 /dish (CHO). […] Random fields of cells were examined under the light microscope and the proportion of blue (β-GAL expressing) cells was determined. […]

[11] = system: Cos 1 cells; experiment: Proportion of cells transfected (β-gal staining), Cos 1; format: cell-based, African Green Monkey; details: Table 1, Cos 1, % of cells
Method: as §1
These conjugates were used to transfect CHO and Cos 1 cells with pPGKlacZNLS for estimation of the proportion of cells transfected. The transfection conditions used were as described above for the CAT experiments with cells being grown in 35 mm dishes for transfection. Cells were seeded the day prior to transfection at a density of 3.4×10^5 /dish (Cos 1) or 6.8×10^4 /dish (CHO). […] Random fields of cells were examined under the light microscope and the proportion of blue (β-GAL expressing) cells was determined.

CCCCCCCCCCCCCCCC(=O)OCC(CO)(CO)NC(=O)[C@H](C)NC(=O)[C@H](CCCCN)NC(=O)[C@H](CCCCN)NC(=O)[C@@H](N)CCCCN [K3ATP1, trilysine alanine tris monopalmitate] (H-KKKA-X1)
ratio [lipid]/[DNA] at which maximum was achieved ([1]; Table 2, Cos 1): 5.55
units β-gal ([1]; Table 2, Cos 1, highest reading of 72 conditions): 9.32 × 10^-6 units
ratio [lipid]/[DNA] at which maximum was achieved ([1]; Table 3, Cos 1): 5.55
β-gal (Cos 1) [1]: 9.32 × 10^-6
MTS OD490-655 [2]: 1.34
Viability (Cos 1) [2]: 1.34
Transfection (CAT) [3]: +
activity relative to tripalmitate K3 molecules [4]: 30%
Transfection (CAT) [5]: +

CCCCCCCCCC(=O)OCC(COC(=O)CCCCCCCCC)(COC(=O)CCCCCCCCC)NC(=O)[C@H](C)NC(=O)[C@H](CCCCN)NC(=O)[C@H](CCCCN)NC(=O)[C@@H](N)CCCCN [K3ATC3]
Viability (Cos 1) [6]: 0.104
ratio [lipid]/[DNA] at which maximum was achieved ([1]; Table 3, Cos 1): 2.77
β-gal (Cos 1) [1]: 9.08 × 10^-6
β-gal (CHO) [7]: 5.27 × 10^-6
Viability (CHO) [8]: 0.052
transfection ability, chain length C10 to C16 [9]: transfection ability was seriously curtailed

CCCCCCCCCCCCCCCC(=O)OCC(COC(=O)CCCCCCCCCCCCCCC)(COC(=O)CCCCCCCCCCCCCCC)NC(=O)[C@H](C)N [K0ATP3]
CAT transfection ([3]; "x" peptide experiment a, CHO): no measurable transfection
transfection (β-gal assay) ([10]; CHO cells): low levels of transfection

CCCCCCCCCCCCCCCC(=O)OCC(COC(=O)CCCCCCCCCCCCCCC)(COC(=O)CCCCCCCCCCCCCCC)NC(=O)[C@H](C)NC(=O)[C@H](CCCCN)NC(=O)[C@H](CCCCN)NC(=O)[C@H](CCCCN)NC(=O)[C@@H](N)CCCCN [K4ATP3] (H-KKKKA-{NHC(CH2O-Palmitoyl)3})
mean level of CAT activity ([3]; "x" peptide experiment c, CHO, 2 hours incubation of 20 μl lysate): 1071
Transfection (βGal) [11]: < 1%
transfection, one to three palmitates, tetra lysine alanine ([5]; R1-R4 experiment g, Cos 1): more effective than the di or monopalmitate
Transfection (CAT) [5]: +(+)

CCCCCCCCCCCCCCCC(=O)OCC(CO)(COC(=O)CCCCCCCCCCCCCCC)NC(=O)CNC(=O)[C@H](CCCCN)NC(=O)[C@H](CCCCN)NC(=O)[C@@H](N)CCCCN [K3GTP2]
CAT levels relative to Lipofectamine ([3]; Experiment 3, CHO, 5 μl): ~22%
CAT levels relative to Transfectam ([3]; Experiment 3, CHO, 5 μl): approximately 64%
Transfection (CAT) [3]: +++
transfection level relative to Lipofectamine ([5]; Experiment 4, Cos 1, 48 hours): ~30%
effect of equimolar DOPE on transfection efficiency ([5]; Experiment 4, Cos 1, compared to VerafectinG2 alone): approximate doubling of transfection efficiency
transfection level with equimolar DOPE relative to Lipofectamine ([5]; Experiment 4, Cos 1, plus equimolar unformulated DOPE): approximately 60%
Transfection (CAT) [5]: ++
Transfection (βGal) ([10]; Table 1, CHO, % of cells): < 1%
